Assay results taken from patent US20230203485A1, “METHODS FOR MODULATING MHC-I EXPRESSION AND IMMUNOTHERAPY USES THEREOF” (Dana-Farber Cancer Institute, Inc., priority 2020, published 2023).

System: class I antigen presentation gene expression in MCC cell lines
Assay: RNA-seq / DESeq2 differential expression of MCC cell lines at baseline and after IFN-γ stimulation
Format: cell-based, human
Conditions: for log2FoldChange: 11 MCC cell lines, baseline vs IFNγ, negative LFC = upregulation in IFNγ-treated
Protocol: FIG. 2A comprises RNA-seq heatmaps of class I antigen presentation gene expression in MCC lines and controls.
FIG. 2B is a volcano plot of differentially expressed genes (genes below FDR cutoff 0.01 are shown in yellow) between baseline and IFN-γ-treated MCC cell lines. Differential expression analysis was performed using DESeq2, and negative LFC indicates increased expression in +IFN-γ samples. IFN genes are highlighted in red.
RNA samples were first assessed for quality using the Agilent Bioanalyzer (DV200 metric). One hundred ng of RNA were used as the input for first strand cDNA synthesis using Superscript III reverse transcriptase and Illumina's TruSeq RNA Access Sample Prep Kit. Synthesis of the second strand of cDNA was followed by indexed adapter ligation with UMI (unique molecular index) adaptors. Subsequent PCR amplification enriched for adapted fragments. Amplified libraries were quantified, normalized, pooled, and hybridized with exome targeting oligos. Following hybridization, bead clean-up, elution and PCR was performed to prepare library pools for sequencing on Illumina flowcell lanes. Transcriptomes were sequenced to a coverage of at least 50 million reads in pairs.
Raw fastq files for fibroblast and keratinocyte control lines were downloaded from SRA using R Bioconductor package SRAdb (Mayakonda et al. (2018) supra; Zhu et al. (2013) BMC Bioinformatics 14 (1): 1-4) using accession codes SRP126422 (4 replicates from control samples ‘NN’) and SRP131347 (6 replicates with condition: control and genotype: control). These fastq files, along with those for the mkl1 and waga cell lines, were aligned using STAR version 2.7.3a (Dobin et al. (2013) Bioinformatics 29 (1): 15-21), using index genome reference file downloaded from ftp.ebi.ac.uk/pub/databases/gencode/Gencode_human/release_19/GRCh37.p13.genome.fa.gz, transcript annotation file downloaded from data.broadinstitute.org/snowman/hg19/star/gencode.v19.annotation.gtf, and with the following options: --twopassMode Basic, --outSAMstrandField intronMotif, --alignIntronMax 1000000, --alignMatesGapMax 1000000, --sjdbScore 2, --outSAMtype BAM Unsorted, --outSAMattributes NH HI NM MD AS XS, --outFilterType BySJout, --outSAMunmapped Within, --genomeLoad NoSharedMemory, --outFilterScoreMinOverLread 0, --outFilterMatchNminOverLread 0, --outFilterMismatchNmax 999, and outFilterMultimapNmax 20. Duplicates were marked with picard MarkDuplicates version 2.22.0-SNAPSHOT.
RNA-sequencing bam files for MCC tumor and cell line samples were downloaded from the Broad Genomics Firecloud/Terra platform using the Google Cloud Storage command line tool gsutil version 4.5 (github.com/GoogleCloudPlatform/gsutil/).
Gene counts were obtained from bam files using featureCounts version 2.0.0 (doi.org/10.1093/bioinformatics/btt656). Very lowly expressed genes with average count across samples less than 1 were excluded from analysis. Between-sample distance metrics were computed using the Euclidean distance on the vectors of variance-stabilized counts obtained from the vst function in the DESeq2 R Bioconductor package ([…]; Love et al. (2014) Genome Biology 15 (12): 550).
Differential expression analysis was carried out between (1) viral positive and viral negative samples (adjusting for cell line or tumor as a covariate), (2) cell line and tumor samples (adjusting for viral status as a covariate), and (3) IFNγ plus and minus samples (adjusting for viral status as a covariate) using the negative binomial GLM Wald test of DESeq2, where significance was assessed using the p-values adjusted for multiple comparisons under default settings. To account for potential global gene expression differences among sample groups, RUVg (Risso et al. (2014) […] 32 (9): 896-902) was used to estimate latent factors of unwanted variation from the list of housekeeping genes downloaded from www.tau.ac.il/˜elieis/HKG/HK_genes.txt. […]

Q: How did the log2FoldChange (ENSG00000259321.1 (symbol NA)) turn out when “IFN-y: type II interferon, recombinant human, used to treat MCC cells” was run?
A: −2.031

Q: What about the log2FoldChange (ENSG00000259529.1 (symbol NA)) of the same substance?
A: −0.9956

Q: And the log2FoldChange (ENSG00000260929.1 (symbol NA))?
A: −3.413

Q: What about the log2FoldChange (ENSG00000261644.1 (symbol NA)) of the same substance?
A: −3.585

Q: And the log2FoldChange (ENSG00000261690.1 (symbol NA))?
A: −3.339

Q: And the log2FoldChange (ENSG00000261884.2 (symbol NA))?
A: −2.414

Q: And the log2FoldChange (ENSG00000262222.1 (symbol NA))?
A: −3.296

Q: And the log2FoldChange (ENSG00000262979.1 (symbol NA))?
A: −3.334

Q: And the log2FoldChange (ENSG00000263013.1 (symbol NA))?
A: −1.286

Q: What about the log2FoldChange (ENSG00000263120.1 (symbol NA)) of the same substance?
A: −1.445

Q: What about the log2FoldChange (ENSG00000263179.1 (symbol NA)) of the same substance?
A: −3.474

Q: What about the log2FoldChange (ENSG00000269640.1 (symbol NA)) of the same substance?
A: −6.567

Q: What about the log2FoldChange (ENSG00000271579.1 (symbol NA)) of the same substance?
A: −6.737

Q: What about the log2FoldChange (ENSG00000273189.1 (symbol NA)) of the same substance?
A: −1.701

Q: What about the log2FoldChange (EPSTI1 ENSG00000133106.10) of the same substance?
A: −3.837

Q: What about the log2FoldChange (FBXO7 ENSG00000100225.13) of the same substance?
A: −0.4101

Q: What about the log2FoldChange (FBXO39 ENSG00000177294.6) of the same substance?
A: −6.492

Q: What about the log2FoldChange (FBXO47 ENSG00000204952.2) of the same substance?
A: −4.04

Q: And the log2FoldChange (FLT3LG ENSG00000090554.8)?
A: −2.012

Q: And the log2FoldChange (HELZ2 ENSG00000130589.12)?
A: −1.739

Q: And the log2FoldChange (ICAM1 ENSG00000090339.4)?
A: −6.633

Q: What about the log2FoldChange (IFI27 ENSG00000165949.8) of the same substance?
A: −3.4

Q: And the log2FoldChange (IFI35 ENSG00000068079.3)?
A: −6.454

Q: What about the log2FoldChange (IL12RB1 ENSG00000096996.11) of the same substance?
A: −4.561

Q: What about the log2FoldChange (IRF8 ENSG00000140968.6) of the same substance?
A: −2.927

Q: And the log2FoldChange (IRF9 ENSG00000213928.4)?
A: −2.537

Q: And the log2FoldChange (ISG20 ENSG00000172183.10)?
A: −2.416

Q: And the log2FoldChange (KRT39 ENSG00000196859.3)?
A: −4.95

Q: What about the log2FoldChange (LGALS3BP ENSG00000108679.8) of the same substance?
A: −1.502

Q: And the log2FoldChange (LGALS9 ENSG00000168961.12)?
A: −2.739

Q: What about the log2FoldChange (LGALS17A ENSG00000226025.5) of the same substance?
A: −5.881

Q: What about the log2FoldChange (LINC01993 ENSG00000204277.1) of the same substance?
A: −2.419

Q: What about the log2FoldChange (LOC254028 ENSG00000258573.1) of the same substance?
A: −5.436

Q: And the log2FoldChange (LOC100294362 ENSG00000263069.1)?
A: 1.32

Q: And the log2FoldChange (LOC100996660 ENSG00000267248.1)?
A: −0.6048

Q: And the “HLA-A, -B, and -C mRNA” value (MCC-336, line non-IFN-responsive by flow cytometry)?
A: lack of IFN-induced HLA-A, -B, and -C mRNA upregulation

Q: What about the log2FoldChange (MIR762HG ENSG00000260083.1) of the same substance?
A: −0.6586

Q: What about the log2FoldChange (MLKL ENSG00000168404.8) of the same substance?
A: −2.957

Q: What about the log2FoldChange (MT2A ENSG00000125148.6) of the same substance?
A: −1.532

Q: And the log2FoldChange (MVP ENSG00000013364.14)?
A: −1.512

Q: And the log2FoldChange (MX2 ENSG00000183486.8)?
A: −5.048

Q: And the log2FoldChange (MXI ENSG00000157601.9)?
A: −7.168

Q: And the log2FoldChange (NLRC5 ENSG00000140853.11)?
A: −5.85

Q: And the log2FoldChange (NUCB1 ENSG00000104805.11)?
A: −0.6283

Q: What about the log2FoldChange (OAS1 ENSG00000089127.8) of the same substance?
A: −4.621

Q: What about the log2FoldChange (OAS2 ENSG00000111335.8) of the same substance?
A: −5.442

Q: And the log2FoldChange (OAS3 ENSG00000111331.8)?
A: −2.277

Q: And the log2FoldChange (OASL ENSG00000135114.8)?
A: −6.129

Q: And the log2FoldChange (OGFR ENSG00000060491.12)?
A: −1

Q: And the log2FoldChange (PARP4 ENSG00000102699.5)?
A: −1.087

Q: And the log2FoldChange (PATL2 ENSG00000229474.2)?
A: −4.443

Q: And the log2FoldChange (PLK1 ENSG00000166851.10)?
A: 0.5496

Q: What about the log2FoldChange (PMAIP1 ENSG00000141682.11) of the same substance?
A: −0.9928

Q: What about the log2FoldChange (PML ENSG00000140464.15) of the same substance?
A: −1.421

Q: What about the log2FoldChange (PSMA3 ENSG00000100567.8) of the same substance?
A: −0.4149

Q: And the log2FoldChange (PSMB10 ENSG00000205220.7)?
A: −5.255

Q: What about the log2FoldChange (PSME1 ENSG00000092010.10) of the same substance?
A: −1.964

Q: And the log2FoldChange (PSME2 ENSG00000100911.9)?
A: −1.919

Q: And the log2FoldChange (RAB2B ENSG00000129472.8)?
A: −0.4425

Q: And the log2FoldChange (RIN3 ENSG00000100599.11)?
A: −2.337

Q: And the log2FoldChange (RNF31 ENSG00000092098.12)?
A: −0.6387

Q: And the log2FoldChange (RNF213 ENSG00000173821.15)?
A: −3.097

Q: And the log2FoldChange (SAMHD1 ENSG00000101347.7)?
A: −2.663

Q: What about the log2FoldChange (SOCS1 ENSG00000185338.4) of the same substance?
A: −2.585

Q: And the log2FoldChange (SOCS3 ENSG00000184557.3)?
A: −1.797

Q: What about the log2FoldChange (SPTLC3 ENSG00000172296.8) of the same substance?
A: −2.773

Q: What about the log2FoldChange (STAT3 ENSG00000168610.10) of the same substance?
A: −0.9181

Q: What about the log2FoldChange (TEKT5 ENSG00000153060.3) of the same substance?
A: −1.743

Q: What about the log2FoldChange (TRAFD1 ENSG00000135148.7) of the same substance?
A: −0.5883

Q: What about the log2FoldChange (TRIM25 ENSG00000121060.10) of the same substance?
A: −1.048

Q: What about the log2FoldChange (TRIM69 ENSG00000185880.8) of the same substance?
A: −2.829

Q: What about the log2FoldChange (USP18 ENSG00000184979.9) of the same substance?
A: −1.899

Q: And the log2FoldChange (USP30-AS1 ENSG00000256262.1)?
A: −8.218

Q: What about the log2FoldChange (VPS13C ENSG00000129003.11) of the same substance?
A: −0.9131

Q: What about the log2FoldChange (WARS ENSG00000140105.13) of the same substance?
A: −3.32

Q: And the log2FoldChange (WIPI1 ENSG00000070540.8)?
A: −1.205

Q: And the log2FoldChange (XAFI ENSG00000132530.12)?
A: −11.47

Q: And the log2FoldChange (ZBP1 ENSG00000124256.10)?
A: −5.347

Q: And the log2FoldChange (ZNFX1 ENSG00000124201.10)?
A: −1.109
